This note sets out measurements from patent publication US20130303509A1, “NAMPT INHIBITORS” (AbbVie Inc., priority 2012, published 2013).

The assay deals with PC3 cells. The assay is described as follows: NAMPT Cell Proliferation Assay. The class given is cell-based. The conditions noted are these: Homo sapiens, PC-3, 120 h, 5 days incubation, cell viability by Cell Titer Glo. The method, boiled down: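 Five-day CellTiter-Glo viability readout in PC3 cells grown in RPMI/10% heat-inactivated FBS. Compounds added after overnight attachment as a 10-fold dilution series, […]. Percent inhibition fitted to sigmoidal dose-response to derive IC50.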
Background: In ATP-based viability assays light output follows the ATP content of the culture.
As to `O=C(Nc1ccc(C2CN(C(=O)c3cccc(F)c3)C2)cc1)[C@H]1CCN(c2cccnn2)C1` [Example 786, (3S)-N-{4-[1-(3-fluorobenzoyl)azetidin-3-yl]phenyl}-1-(pyridazin-3-yl)pyrrolidine-3-carboxamide], the IC50 turned out to be 12 nM. This counts as double-digit nanomolar.
In the case of `O=C(Nc1ccc(C2CCN(C(=O)c3ccsc3)CC2)cc1)C1CN(c2cccnn2)C1` [Example 425, 1-(pyridazin-3-yl)-N-{4-[1-(thiophen-3-ylcarbonyl)piperidin-4-yl]phenyl}azetidine-3-carboxamide], the IC50 was 0.91 nM.
Compound `O=C(Nc1ccc(OC2CCN(C(=O)c3ccc(Cl)cc3)CC2)cc1)C1CN(c2cccnn2)C1` [Example 245, N-(4-{[1-(4-chlorobenzoyl)piperidin-4-yl]oxy}phenyl)-1-(pyridazin-3-yl)azetidine-3-carboxamide] registered a 50% inhibitory concentration (IC50) of 7.06 nM.
As for `CCCC(=O)N1CCC(c2ccc(NC(=O)[C@H]3CCN(c4cccnn4)C3)cc2)CC1` [Example 681, (3S)-N-[4-(1-butanoylpiperidin-4-yl)phenyl]-1-(pyridazin-3-yl)pyrrolidine-3-carboxamide], half-maximal inhibition (IC50) required 9.02 nM.
Take `CC(=O)N1CCC(Oc2ccc(NC(=O)C3CN(c4ccnnc4)C3)cc2)CC1` [Example 282, N-{4-[(1-acetylpiperidin-4-yl)oxy]phenyl}-1-(pyridazin-4-yl)azetidine-3-carboxamide]: the IC50 is 629 nM.
The figure for `O=C(Nc1ccc(C2CCN(C(=O)c3cccc(F)c3)CC2)cc1)[C@H]1CCN(c2cccnn2)C1` [Example 725, (3S)-N-{4-[1-(3-fluorobenzoyl)piperidin-4-yl]phenyl}-1-(pyridazin-3-yl)pyrrolidine-3-carboxamide] is 4.01 nM; for `Cc1cnc(C(=O)N2CCC(c3ccc(NC(=O)C4CN(c5cccnn5)C4)cc3)CC2)cn1` [Example 378, N-(4-{1-[(5-methylpyrazin-2-yl)carbonyl]piperidin-4-yl}phenyl)-1-(pyridazin-3-yl)azetidine-3-carboxamide] it is 7.09 nM.
The compound `CC(C)Cn1cc(-c2cc(C(=O)N[C@H]3CCN(c4ccc(Cl)nn4)C3)cs2)cn1` [Example 629, N-[(3S)-1-(6-chloropyridazin-3-yl)pyrrolidin-3-yl]-5-[1-(2-methylpropyl)-1H-pyrazol-4-yl]thiophene-3-carboxamide] displayed an IC50 of 5010 nM.
The compound `O=C(Nc1ccc(C2CCN(C(=O)c3cccc4ccccc34)CC2)cc1)C1CN(c2cccnn2)C1` [Example 406, N-{4-[1-(naphthalen-1-ylcarbonyl)piperidin-4-yl]phenyl}-1-(pyridazin-3-yl)azetidine-3-carboxamide] registered an IC50 of 7.42 nM.
Compound `CC(C)(O)C(=O)N1CC(Oc2ccc(NC(=O)C3CN(c4ccnnc4)C3)cc2)C1` [Example 207, N-(4-{[1-(2-hydroxy-2-methylpropanoyl)azetidin-3-yl]oxy}phenyl)-1-(pyridazin-4-yl)azetidine-3-carboxamide] returned an IC50 of 671 nM.
Consider `O=C(Nc1ccc(OC2CCN(C(=O)C(F)(F)c3ccccc3)CC2)cc1)C1CN(c2ccnnc2)C1` [Example 269, N-[4-({1-[difluoro(phenyl)acetyl]piperidin-4-yl}oxy)phenyl]-1-(pyridazin-4-yl)azetidine-3-carboxamide], for which the IC50 turned out to be 60.4 nM.
For the compound `COCC(=O)N1CCC(Oc2ccc(NC(=O)C3CN(c4cccnn4)C3)cc2)CC1` [Example 246, N-(4-{[1-(methoxyacetyl)piperidin-4-yl]oxy}phenyl)-1-(pyridazin-3-yl)azetidine-3-carboxamide], the IC50 stood at 9.65 nM.
Regarding `O=C(Nc1ccc(C2CCN(C(=O)CC(F)(F)F)CC2)cc1)C1CN(c2cccnc2)C1` [Example 122, 1-(pyridin-3-yl)-N-{4-[1-(3,3,3-trifluoropropanoyl)piperidin-4-yl]phenyl}azetidine-3-carboxamide], the half-maximal inhibitory concentration (IC50) is 0.61 nM. This IC50 lies about 16-fold lower than the previous one.
The compound `O=C(Nc1ccc(C2CCN(C(=O)CC3CCCC3)CC2)cc1)[C@H]1CCN(c2ccnnc2)C1` [Example 142, (3S)—N-{4-[1-(cyclopentylacetyl)piperidin-4-yl]phenyl}-1-(pyridazin-4-yl)pyrrolidine-3-carboxamide] yielded a half-inhibitory concentration (IC50) of 741 nM.
The figure for `O=C(NC1CN(c2cccnc2)C1)c1ccc(OC2CCN(C(=O)CC3CCOCC3)CC2)cc1` [Example 21, N-[1-(pyridin-3-yl)azetidin-3-yl]-4-{[1-(tetrahydro-2H-pyran-4-ylacetyl)piperidin-4-yl]oxy}benzamide] is 150 nM; for `O=C(Nc1ccc(C2CCN(C(=O)c3ccc(F)cc3)CC2)cc1)[C@H]1CCN(c2cccnn2)C1` [Example 689, (3S)-N-{4-[1-(4-fluorobenzoyl)piperidin-4-yl]phenyl}-1-(pyridazin-3-yl)pyrrolidine-3-carboxamide] it is 9.68 nM; for `O=C(Nc1ccc(C2CCN(C(=O)C3CCCC3)CC2)cc1)C1CN(c2cccnn2)C1` [Example 439, N-{4-[1-(cyclopentylcarbonyl)piperidin-4-yl]phenyl}-1-(pyridazin-3-yl)azetidine-3-carboxamide] it is 3.36 nM.
As to `O=C(Nc1ccc(OC2CCN(C(=O)c3nccs3)CC2)cc1)C1CN(c2cccnc2)C1` [Example 68, 1-(pyridin-3-yl)-N-(4-{[1-(1,3-thiazol-2-ylcarbonyl)piperidin-4-yl]oxy}phenyl)azetidine-3-carboxamide], the IC50 was found to be 3.54 nM. This IC50 and that of the compound before are within 1.5-fold of each other.
The figure for `O=C(Nc1ccc(O[C@@H]2CCN(C(=O)c3cccc(Cl)c3)C2)cc1)C1CN(c2cccnn2)C1` [Example 506, N-(4-{[(3R)-1-(3-chlorobenzoyl)pyrrolidin-3-yl]oxy}phenyl)-1-(pyridazin-3-yl)azetidine-3-carboxamide] is 1.28 nM.
In turn, `CCCCCCC(=O)N1CCC(c2ccc(NC(=O)C3CN(c4cccnn4)C3)cc2)CC1` [Example 329, N-[4-(1-heptanoylpiperidin-4-yl)phenyl]-1-(pyridazin-3-yl)azetidine-3-carboxamide] gave an IC50 of 2.83 nM.
`O=C(Nc1ccc(C2CCN(C(=O)c3ccoc3)CC2)cc1)[C@H]1CCN(c2cccnn2)C1` [Example 687, (3S)-N-{4-[1-(furan-3-ylcarbonyl)piperidin-4-yl]phenyl}-1-(pyridazin-3-yl)pyrrolidine-3-carboxamide] came in with an IC50 of 6.11 nM. This IC50 lies about 2.2-fold higher than the previous one.
`CC[C@H](C)C(=O)N1CC[C@@H](Oc2ccc(NC(=O)C3CN(c4ccnnc4)C3)cc2)C1` [Example 445, N-[4-({(3R)-1-[(2S)-2-methylbutanoyl]pyrrolidin-3-yl}oxy)phenyl]-1-(pyridazin-4-yl)azetidine-3-carboxamide] yielded an IC50 of 19.1 nM.
`O=C(Nc1ccc(C2CCN(C(=O)C(F)(F)c3ccccc3)CC2)cc1)C1CN(c2ccnnc2)C1` [Example 558, N-(4-{1-[difluoro(phenyl)acetyl]piperidin-4-yl}phenyl)-1-(pyridazin-4-yl)azetidine-3-carboxamide] gave a 50% inhibitory concentration (IC50) of 0.66 nM. This IC50 is about 29-fold lower than that of the compound before.
On to `CC(C)C(=O)N1CC[C@@H](Oc2ccc(NC(=O)C3CN(c4cccnn4)C3)cc2)C1` [Example 513, N-(4-{[(3R)-1-(2-methylpropanoyl)pyrrolidin-3-yl]oxy}phenyl)-1-(pyridazin-3-yl)azetidine-3-carboxamide], for which the IC50 came out at 3.5 nM.
Turning to `Cc1ncccc1N1CC(C(=O)Nc2ccc(C3CCN(C(=O)c4ccco4)CC3)cc2)C1` [Example 189, N-{4-[1-(furan-2-ylcarbonyl)piperidin-4-yl]phenyl}-1-(2-methylpyridin-3-yl)azetidine-3-carboxamide], it took 14.6 nM to reach half-maximal inhibition (IC50). Against the preceding compound, the IC50 is about 4.2-fold higher.

Usually IC50 stands for the concentration that gives 50% inhibition. Lower therefore signals inhibition by little substance.
